# Assay results as given in patent publication US5177015A, “Onco-developmentally regulated α-N-acetylgalactosaminyltransferase” (Fred Hutchinson Cancer Research Centre, priority 1992, dated 1993).
# Ends that are not written are not given here.
# Key:
# [1] = system: onco-developmentally regulated α-N-acetylgalactosaminyltransferase; assay: Solubilization of the enzyme with detergents; type: biochemical, human
# Excerpt: The particulate membrane fraction can be prepared according to the method of Holmes, E. H. et al. ((1985) J. Biol. Chem. 260, 7619-7627).
# [2] = system: onco-developmentally regulated α-N-acetylgalactosaminyltransferase (HUH-7 homogenate); details: 1 mM EDTA, 25 mM Tris buffer, pH 7.6
# Experimental: In the present case, the requirement for metal ion for the onco-developmentally regulated α-N-acetylgalactosaminyltransferase was determined in 25 mM Tris buffer, pH 7.6, supplemented with 20 mM MnCl2, 10 mM MgCl2, 1 mM CaCl2 and combinations of two of these or 1 mM EDTA.
# Hepatoma cell (HUH-7) homogenates and the synthetic and natural peptides set forth in the Table in Example 1 were prepared as in Example 1 and incubated as described in Example 1 using 25 mM Tris buffer, pH 7.6; supplemented with 20 mM MnCl2, 10 mM MgCl2, 1 mM CaCl2 and combinations of two of these or 1 mM EDTA.
# [3] = system: onco-developmentally regulated α-N-acetylgalactosaminyltransferase (hepatoma cell homogenate); assay: Effect of UDP-GalNAc concentration (Hanes-Woolf plot of saturation data); type: biochemical, human; details: UDP-GalNAc 0.6 μM to 200 μM, 200 nmol TPI, read-out: apparent Km for UDP-GalNAc
# Experimental: B. Effect of UDP-GalNAc concentration. A Hanes-Woolf plot of saturation data was obtained by varying UDP-GalNAc concentration from 0.6 μM to 200 μM. The reaction was conducted as described in Example 2 in the presence of 100 mg protein and 200 nmol TPI. The specific activity of UDP[^3 H]-GalNAc utilized was 4×10^6 cpm/nmol.
# The apparent Km for UDP-GalNAc can be determined by generating a Hanes-Woolf plot of saturation data obtained by varying the UDP-GalNAc concentration at a constant cellular or tissue protein concentration and a constant substrate concentration. A preferred substrate for this assay is TPI.
# A Hanes-Woolf plot of saturation data was obtained by varying UDP-GalNAc concentration from 0.6 μM to 200 μM. The reaction as conducted as described in Example 1 in the presence of 100 mg protein of hepatoma cell homogenate and 200 nmol TPI. The specific activity of the UDP[^3 H]-GalNAc used was 4×10^6 cpm/nmol. The reacted samples were also treated as described in Example 1.
# [4] = system: α-N-acetylgalactosaminyltransferase in crude homogenates of human hepatoma cells (HUH-7); assay: Specific activity of α-N-acetylgalactosaminyltransferase toward various acceptors; type: biochemical; details: 200 nmol acceptor, HUH-7 homogenate, 25 mM Tris, 10 mM MgCl2, 1 mM CaCl2, pH 7.6, 2 hrs at 37° C., FDC-6 immunoaffinity
# Experimental: 8×10^7 hepatoma cells (HUH-7) cultured in serum-free medium (Dulbecco-Modified Eagles Medium) were homogenized in a Potter-Elvehjem homogenizer with 200 μl of distilled water. 300 μl of tris buffer solution, consisting of 25 mM tris, 10 mM MgCl2 and 1 mM CaCl2, pH 7.6, was added. 0.3 nmol UDP[^3 H]-GalNAc (specific activity 8.7 Ci/mmol, New England Nuclear Research Product) and 25 nmol UDP-GalNAc were added and incubated for 2 hrs at 37° C. The incubation mixture was centrifuged at 10,000 rpm for 30 min. Supernatant was applied onto a 0.5 ml Sepharose 4B precolumn, followed by a 0.5 ml FDC-6 immunoaffinity column containing 10 mg of purified FDC-6 antibody/ml as described by Matsuura, H. et al. ((1988) J. Biol. Chem. 263, 3314-3322). Immunoprecipitation using 200 μl of FDC-6 binding Sepharose 4B was also performed as described by Bigler R. D. et al ((1988) J. Immunol. 144 21). Supernatants were incubated for 1 hr at 20° C. The column or immunoprecipitate was washed with 1M NaCl in 50 mM Tris buffer, pH 7.4, and eluted with 2.5M potassium thiocyanate in the same buffer solution. The eluate and washings were pooled and aliquots were counted. The same incubation mixture without addition of synthetic peptides or FN was used as a control.
# [5] = system: onco-developmentally regulated α-N-acetylgalactosaminyltransferase (HUH-7 homogenate); assay: Variation of incubation time (kinetics of α-GalNAc transfer to synthetic peptide); type: biochemical, human; details: 200 nmol TPI, Tris pH 7.6, 37°, incubated 10 min. to 24 hours
# Experimental: C. Variation of incubation time. The standard reaction mixture described in Example 1 using TPI was incubated for 10 min to 24 hr. open circles, with TPI; closed circles, without TPI (control).
# In order to determine the kinetics of α-GalNAc transfer to synthetic peptide, a reaction mixture containing 12.5 μmol Tris, pH 7.6, 200 nmol TPI, 0.3 nmol UDP[^3 H]-GalNAc, 25 nmol UDP-GalNAc, 5 μmol MgCl2, 0.5 μmol CaCl2 and homogenized hepatoma cells (HUH-7) was incubated for 10 min. to 24 hours at 37°. A parallel control was run without TPI. At the end of the incubation periods, the samples were treated as described in Example 1.
compound,measurement,setting,value
"C[C@H](CCC(=O)NCCC[N+](C)(C)CC(O)CS(=O)(=O)[O-])[C@H]1CC[C@H]2[C@@H]3[C@H](O)C[C@@H]4C[C@H](O)CC[C@]4(C)[C@H]3C[C@H](O)[C@]12C (some centres unmarked) [CHAPSO, 3-(3-cholamidopropyldimethylammonio)-1-(20-hydroxy-1-propanesulfonate)]",Effect of solubilization with detergent on enzyme activity,[1],does not enhance enzyme activity
O=C(O)CN(CCN(CC(=O)O)CC(=O)O)CC(=O)O [EDTA],Enzyme activity in the presence of EDTA,[2],totally abolished
CC(=O)NC1C(OP(=O)(O)OP(=O)(O)OCC2OC(n3ccc(=O)[nH]c3=O)C(O)C2O)OC(CO)C(O)C1O (centres unmarked) [UDP-GalNAc],Km,[3],~48 µM
Triton X-100,Effect of solubilization with detergent on enzyme activity,[1],does not enhance enzyme activity
"VTHPGY [VTY, val-thr-his-pro-gly-tyr]",Activity (specific activity of the enzyme to the acceptor),[4],0.03 pmol/hr/mg protein
thr-pro-phe-val-thr-his-pro-gly-tyr-asp-thr-gly-asn-gly-ile (TPFVTHPGYDTGNGI) [TPI],Activity (specific activity of the enzyme to the acceptor),[4],0.11 pmol/hr/mg protein
same,Time over which α-GalNAc transfer to synthetic peptide is linear,[5],about 2 hours
thr-pro-phe-val-thr-his-pro-gly-tyr-asp-thr-gly-asn-gly-ile-gln-leu-pro-gly-thr-ser-gly-gln-gln-pro-ser-val-gly-gln-gln (TPFVTHPGYDTGNGIQLPGTSGQQPSVGQQ) [TPQ],Activity (specific activity of the enzyme to the acceptor),[4],0.06 pmol/hr/mg protein
